This note sets out measurements from patent publication USRE42890E1, “Furazanobenzimidazoles” (Basilea Pharmaceutica AG, priority 2003, dated 2011).

The subject of assay [1] is adherent cells or suspension cells. Kind of assay: Hoechst 33342 nuclear staining (fraction of apoptotic nuclei). Further details: key: 0 relating to no activity; 1 relating to weak activity comprising less than 70% of the cells; score 2 relating to strong activity comprising more than 70% of the cells. Type of assay: cell-based.
The subject of the next assay is HeLa. Put plainly: MTS proliferation assay, HeLa. The conditions noted are these: 72 h incubation, read-out: MTS proliferation assay IC 50 HeLa. It counts as cell-based, human. In short, it runs like this: (§1)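 Absorbance at 492 nm after 3 h with MTS reagent gave proliferation. This followed 72 h compound exposure (final 0.3, 1, 3, 10 μM) at 37 °C and 7.5% CO2. Cells had been plated 24 h earlier in complete RPMI-1640 with 5% or 10% FCS.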
(Tetrazolium dyes change colour on reduction, which living cells bring about.)

The test system of the next assay is HT1080. Put plainly: MTS proliferation assay, HT1080. The conditions noted are these: HT1080, 72 h incubation; read-out: MTS proliferation assay IC 50 HT1080. Type of assay: cell-based, human. In short, it runs like this: as §1
The subject of a further assay is Jily. Kind of assay: MTS proliferation assay, Jily. Type of assay: cell-based. The conditions noted are these: 72 h incubation, read-out: MTS proliferation assay IC 50 Jily. In short, it runs like this: (§2)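 Antiproliferative read-out by MTS (3 h, A492) after 72 h compound exposure at final 0.3–10 μM (four concentrations). Cells were plated 24 h earlier in RPMI-1640 containing 5% or 10% FCS, cultured at 37 °C with 7.5% CO2.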

The next assay concerns MRC5. Put plainly: MTS proliferation assay, MRC5. It counts as cell-based. The conditions noted are these: MRC5, 72 h incubation; read-out: MTS proliferation assay IC 50 MRC5. An outline of the steps:
as §2

In the next assay the test system is Jurkat. Kind of assay: MTS proliferation assay, Jurkat. Type of assay: cell-based, human. To be noted: 72 h incubation, read-out: MTS proliferation assay IC 50 Jurkat. In short, it runs like this:
as §1

In the case of `Cl.Nc1ccc(C(=O)Cn2c(-c3nonc3N)nc3ccccc32)cc1` [Example 51], the “Hoechst 33342 nuclear staining score” value in assay [1] (H460, conc 0.01 μm) is on record as 0; in assay [1] (H460, conc 0.1 μm) it was 2 (score 2 relating to strong activity comprising more than 70% of the cells); in assay [1] (H460, conc 1 μm), 2 (score 2 relating to strong activity comprising more than 70% of the cells); in assay [1] (HeLa, conc 0.01 μm) it was 0; in assay [1] (HeLa, conc 0.1 μm), 2 (score 2 relating to strong activity comprising more than 70% of the cells); in assay [1] (HeLa, conc 1 μm) it was 2 (score 2 relating to strong activity comprising more than 70% of the cells). Further, the “Hoechst 33342 nuclear staining score” value is given as 0 in assay [1] (Jily, conc 0.01 μm); 2 (score 2 relating to strong activity comprising more than 70% of the cells) in assay [1] (Jily, conc 0.1 μm); 2 (score 2 relating to strong activity comprising more than 70% of the cells) in assay [1] (Jily, conc 1 μm); 1 (1 relating to weak activity comprising less than 70% of the cells) in assay [1] (Jurkat, conc 0.01 μm); 2 (score 2 relating to strong activity comprising more than 70% of the cells) in assay [1] (Jurkat, conc 0.1 μm); 2 (score 2 relating to strong activity comprising more than 70% of the cells) in assay [1] (Jurkat, conc 1 μm). For the same compound, the “Hoechst 33342 nuclear staining score” value in assay [1] (MRC5, conc 0.01 μm) was 0; in assay [1] (MRC5, conc 0.1 μm) it was 2 (score 2 relating to strong activity comprising more than 70% of the cells); in assay [1] (MRC5, conc 1 μm), 2 (score 2 relating to strong activity comprising more than 70% of the cells); in assay [1] (PBLs, conc 0.01 μm), 0; in assay [1] (PBLs, conc 0.1 μm), 0; in assay [1] (PBLs, conc 1 μm), 0. Besides, the IC50 with HeLa, in the assay on HT1080, in the assay with Jily, in the assay with MRC5 and with Jurkat was 10 to 100 nM in each case.
As for `COc1cccc(/C=C/C(=O)Cn2c(-c3nonc3N)nc3ccccc32)c1` [Example 120], the “Hoechst 33342 nuclear staining score” value in assay [1] (H460, conc 0.01 μm) is 0; in assay [1] (H460, conc 0.1 μm), 0; in assay [1] (H460, conc 1 μm), 0; in assay [1] (HeLa, conc 0.01 μm), 0; in assay [1] (HeLa, conc 0.1 μm) it was 0; in assay [1] (HeLa, conc 1 μm) it was 0. The “Hoechst 33342 nuclear staining score” value in assay [1] (Jily, conc 0.01 μm) is listed as 0; in assay [1] (Jily, conc 0.1 μm), 0; in assay [1] (Jily, conc 1 μm), 0; in assay [1] (Jurkat, conc 0.01 μm), 0; in assay [1] (Jurkat, conc 0.1 μm) it was 0; in assay [1] (Jurkat, conc 1 μm), 0. For the same compound, the “Hoechst 33342 nuclear staining score” value in assay [1] (MRC5, conc 0.01 μm) amounted to 0; in assay [1] (MRC5, conc 0.1 μm) it was 0; in assay [1] (MRC5, conc 1 μm), 0; in assay [1] (PBLs, conc 0.01 μm) it was 0; in assay [1] (PBLs, conc 0.1 μm), 0; in assay [1] (PBLs, conc 1 μm), 0. Further, the IC50 in the assay on HeLa, in the assay on HT1080, in the assay on Jily, with MRC5 and in the assay on Jurkat was greater than 1000 nM throughout.
Turning to `N#CCCNc1nonc1-c1nc2ccccc2n1CC(=O)c1ccc(N)nc1` [Example 79], the “Hoechst 33342 nuclear staining score” value in assay [1] (H460, conc 0.01 μm) is listed as 2 (score 2 relating to strong activity comprising more than 70% of the cells); in assay [1] (H460, conc 0.1 μm) it was 2 (score 2 relating to strong activity comprising more than 70% of the cells); in assay [1] (H460, conc 1 μm), 2 (score 2 relating to strong activity comprising more than 70% of the cells); in assay [1] (HeLa, conc 0.01 μm), 2 (score 2 relating to strong activity comprising more than 70% of the cells); in assay [1] (HeLa, conc 0.1 μm) it was 2 (score 2 relating to strong activity comprising more than 70% of the cells); in assay [1] (HeLa, conc 1 μm) it was 2 (score 2 relating to strong activity comprising more than 70% of the cells). Further, the “Hoechst 33342 nuclear staining score” value in assay [1] (Jily, conc 0.01 μm) was 2 (score 2 relating to strong activity comprising more than 70% of the cells); in assay [1] (Jily, conc 0.1 μm), 2 (score 2 relating to strong activity comprising more than 70% of the cells); in assay [1] (Jily, conc 1 μm), 2 (score 2 relating to strong activity comprising more than 70% of the cells); in assay [1] (Jurkat, conc 0.01 μm), 2 (score 2 relating to strong activity comprising more than 70% of the cells); in assay [1] (Jurkat, conc 0.1 μm) it was 2 (score 2 relating to strong activity comprising more than 70% of the cells); in assay [1] (Jurkat, conc 1 μm) it was 2 (score 2 relating to strong activity comprising more than 70% of the cells). Besides, the “Hoechst 33342 nuclear staining score” value in assay [1] (MRC5, conc 0.01 μm) is recorded as 1 (1 relating to weak activity comprising less than 70% of the cells); in assay [1] (MRC5, conc 0.1 μm), 2 (score 2 relating to strong activity comprising more than 70% of the cells); in assay [1] (MRC5, conc 1 μm), 2 (score 2 relating to strong activity comprising more than 70% of the cells); in assay [1] (PBLs, conc 0.01 μm) it was 0; in assay [1] (PBLs, conc 0.1 μm), 0; in assay [1] (PBLs, conc 1 μm), 0. The IC50 with HeLa, with HT1080, in the assay with Jily, in the assay with MRC5 and in the assay on Jurkat was less than 10 nM in each case.
On to `Nc1nonc1-c1nc2ccccc2n1CC(=O)c1cccc2ccccc12` [Example 41], for which the “Hoechst 33342 nuclear staining score” value in assay [1] (HeLa, conc 0.01 μm) is listed as 0; in assay [1] (HeLa, conc 0.1 μm), 0; in assay [1] (HeLa, conc 1 μm), 2 (score 2 relating to strong activity comprising more than 70% of the cells); in assay [1] (Jily, conc 0.01 μm) it was 0; in assay [1] (Jily, conc 0.1 μm), 0; in assay [1] (Jily, conc 1 μm), 2 (score 2 relating to strong activity comprising more than 70% of the cells). Further, the “Hoechst 33342 nuclear staining score” value in assay [1] (Jurkat, conc 0.01 μm) is listed as 0; in assay [1] (Jurkat, conc 0.1 μm), 0; in assay [1] (Jurkat, conc 1 μm), 2 (score 2 relating to strong activity comprising more than 70% of the cells); in assay [1] (MRC5, conc 0.01 μm), 0; in assay [1] (MRC5, conc 0.1 μm), 0; in assay [1] (MRC5, conc 1 μm), 0. The “Hoechst 33342 nuclear staining score” value was 0 in assay [1] (PBLs, conc 0.01 μm); 0 in assay [1] (PBLs, conc 0.1 μm); 1 (1 relating to weak activity comprising less than 70% of the cells) in assay [1] (PBLs, conc 1 μm). The IC50 with HeLa, in the assay with HT1080, in the assay with Jily, in the assay on MRC5 and in the assay with Jurkat was 100 to 1000 nM in each case.
